Test results taken from patent US10246462B2, “Chemokine receptor modulators and uses thereof” (FLX Bio, Inc., priority 2016, dated 2019).
Structures can show the parent of a compound that is named as a salt.

Molecular target: CCR4 (Homo sapiens (Human), UniProt P51679)
Assay: Calcium mobilization (Ca Flux) assay
Type: cell-based
Description: Calcium Mobilization Assay. Calcium mobilization experiments may be performed by labeling the human T-cell line CEM with […] dye (45 min at room temperature), washing with PBS, and re-suspending into flux buffer (HBSS with 1% FBS).

CCR4, sequence (P51679 whole entry): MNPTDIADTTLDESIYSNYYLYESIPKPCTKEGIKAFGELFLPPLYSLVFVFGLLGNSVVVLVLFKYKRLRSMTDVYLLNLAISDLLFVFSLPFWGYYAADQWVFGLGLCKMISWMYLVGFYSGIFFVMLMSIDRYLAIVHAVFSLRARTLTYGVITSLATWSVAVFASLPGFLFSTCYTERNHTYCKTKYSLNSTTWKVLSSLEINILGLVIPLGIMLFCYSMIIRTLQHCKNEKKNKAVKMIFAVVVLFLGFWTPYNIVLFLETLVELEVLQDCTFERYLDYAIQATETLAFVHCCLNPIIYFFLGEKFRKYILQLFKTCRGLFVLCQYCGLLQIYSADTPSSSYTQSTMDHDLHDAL

Compound | IC50 [nM]
Cc1nn([C@H](C)c2ccc(Cl)cc2Cl)c2nc(N3CCC(N4CCC[C@@H]4C)C(C)C3)cnc12 (stereo partly drawn) [Example 21, 1-((R)-1-(2,4-Dichlorophenyl)ethyl)-3-methyl-6-(3-methyl-4-((S)-2-methylpyrrolidin-1-yl)piperidin-1-yl)-1H-pyrazolo[3,4-b]pyrazine hydrochloride] | > 500
C[C@@H]1CN(c2cnc3c(C#N)nn([C@H](C)c4ccc(Cl)cc4Cl)c3n2)CC[C@@H]1N1CCCCC1 [Example 23, 1-((R)-1-(2,4-Dichlorophenyl)ethyl)-6-((3′R,4′S)-3′-methyl-[1,4′-bipiperidin]-1′-yl)-1H-pyrazolo[3,4-b]pyrazine-3-carbonitrile hydrochloride] | < 100
CC(c1ccc(Cl)cc1Cl)n1nc(C(N)=O)c2ncc(N3CCC(N4CCCCC4)C(F)C3)nc21 (stereo not shown) [Example 25, 1-(1-(2,4-Dichlorophenyl)ethyl)-6-(3′-fluoro-[1,4′-bipiperidin]-1′-yl)-1H-pyrazolo[3,4-b]pyrazine-3-carboxamide hydrochloride] | 100 to 500
C[C@H](c1ccc(Cl)cc1Cl)n1nc(C#N)c2ncc(N3CC[C@H](N4CCCCC4)[C@H](CO)C3)nc21 [Example 29, 1-((R)-1-(2,4-Dichlorophenyl)ethyl)-6-((3′R,4′S)-3′-(hydroxymethyl)-[1,4′-bipiperidin]-1′-yl)-1H-pyrazolo[3,4-b]pyrazine-3-carbonitrile hydrochloride] | < 100
C[C@@H]1CN(c2cnc3c(C#N)nn([C@H](C)c4ccc(Cl)cc4Cl)c3n2)CC[C@@H]1N1CCC[C@H]1C(=O)O [Example 35, ((3R,4S)-1-(3-Cyano-1-((R)-1-(2,4-dichlorophenyl)ethyl)-1H-pyrazolo[3,4-b]pyrazin-6-yl)-3-methylpiperidin-4-yl)-L-proline 2,2,2-trifluoroacetate] | 100 to 500
Cc1nn([C@H](C)c2ccc(Cl)cc2Cl)c2nc(N3CC[C@H](N4CCC[C@H]4C(C)(C)O)[C@H](C)C3)cnc12 [Example 36, 2-((S)-1-((3R,4S)-1-(1-((R)-1-(2,4-Dichlorophenyl)ethyl)-3-methyl-1H-pyrazolo[3,4-b]pyrazin-6-yl)-3-methylpiperidin-4-yl)pyrrolidin-2-yl)propan-2-ol hydrochloride] | 100 to 500
Cc1nn([C@H](C)c2ccc(Cl)cc2Cl)c2nc(N3CC[C@H](N4C[C@H](O)C[C@H]4C(=O)O)[C@H](C)C3)cnc12 [Example 37, (2S,4R)-1-((3R,4S)-1-(1-((R)-1-(2,4-Dichlorophenyl)ethyl)-3-methyl-1H-pyrazolo[3,4-b]pyrazin-6-yl)-3-methylpiperidin-4-yl)-4-hydroxypyrrolidine-2-carboxylic acid 2,2,2-trifluoroacetate] | > 500
Cc1nn([C@H](C)c2ccc(Cl)cc2Cl)c2nc(N3CC[C@@H](N4CCC[C@@H](CCC(=O)O)C4)[C@@H](C)C3)cnc12 [Example 40, 3-((3S,3′S,4′R)-1′-(1-((R)-1-(2,4-Dichlorophenyl)ethyl)-3-methyl-1H-pyrazolo[3,4-b]pyrazin-6-yl)-3′-methyl-[1,4′-bipiperidin]-3-yl)propanoic acid 2,2,2-trifluoroacetate] | > 500
C[C@@H]1CN(c2cnc3c(C#N)nn([C@H](C)c4ccc(Cl)cc4Cl)c3n2)CC[C@@H]1N1CCC[C@H]1CCC(=O)O [Example 43, 3-((S)-1-((3R,4S)-1-(3-Cyano-1-((R)-1-(2,4-dichlorophenyl)ethyl)-1H-pyrazolo[3,4-b]pyrazin-6-yl)-3-methylpiperidin-4-yl)pyrrolidin-2-yl)propanoic acid hydrochloride] | < 100
Cc1nn([C@H](C)c2ccc(Cl)cc2Cl)c2nc(N3CCC(N4CCC[C@H]4CCN)[C@H](C)C3)cnc12 (stereo partly drawn) [Example 45, 3-((R)-1-((3R,4S)-1-(1-((R)-1-(2,4-Dichlorophenyl)ethyl)-3-methyl-1H-pyrazolo[3,4-b]pyrazin-6-yl)-3-methylpiperidin-4-yl)pyrrolidin-2-yl)ethan-1-amine] | 100 to 500
Cc1nn([C@H](C)c2ccc(Cl)cc2F)c2nc(N3CC[C@H](N4CCC[C@H]4CCC(=O)O)[C@H](C)C3)cnc12 [Example 49, 3-((S)-1-((3R,4S)-1-(1-((R)-1-(4-Chloro-2-fluorophenyl)ethyl)-3-methyl-1H-pyrazolo[3,4-b]pyrazin-6-yl)-3-methylpiperidin-4-yl)pyrrolidin-2-yl)propanoic acid 2,2,2-trifluoroacetate] | 100 to 500

Other lines, results leading:

IC50 [nM] | Compound
100 to 500 | Cc1nn([C@H](C)c2ccc(Cl)cc2Cl)c2nc(N3CC[C@H](N4CCC[C@@H]4C)[C@H](C)C3)cnc12 [Example 22, 1-((R)-1-(2,4-Dichlorophenyl)ethyl)-3-methyl-6-((3R,4S)-3-methyl-4-((S)-2-methylpyrrolidin-1-yl)piperidin-1-yl)-1H-pyrazolo[3,4-b]pyrazine hydrochloride]
> 500 | C[C@H](c1ccc(Cl)cc1Cl)n1nc(C#N)c2ncc(N3CC[C@@H](N4CCCCC4)[C@@H](C)C3)nc21 [Example 24, 1-((R)-1-(2,4-Dichlorophenyl)ethyl)-6-((3′S,4′R)-3′-methyl-[1,4′-bipiperidin]-1′-yl)-1H-pyrazolo[3,4-b]pyrazine-3-carbonitrile hydrochloride]
> 500 | CC(c1ccc(Cl)cc1Cl)n1nc(C#N)c2ncc(N3CCC(N4CCCCC4)C(F)C3)nc21 (stereo not shown) [Example 26, 1-(1-(2,4-Dichlorophenyl)ethyl)-6-(3′-fluoro-[1,4′-bipiperidin]-1′-yl)-1H-pyrazolo[3,4-b]pyrazine-3-carbonitrile 2,2,2-trifluoroacetate]
100 to 500 | CC(c1ccc(Cl)cc1Cl)n1nc(C(N)=O)c2ncc(N3CCC(N4CCCCC4)C(CO)C3)nc21 (stereo not shown) [Example 27, 1-(1-(2,4-Dichlorophenyl)ethyl)-6-(3′-(hydroxymethyl)-[1,4′-bipiperidin]-1′-yl)-1H-pyrazolo[3,4-b]pyrazine-3-carboxamide hydrochloride]
100 to 500 | C[C@H](c1ccc(Cl)cc1Cl)n1nc(C#N)c2ncc(N3CC[C@@H](N4CCCCC4)[C@@H](CO)C3)nc21 [Example 28, 1-((R)-1-(2,4-Dichlorophenyl)ethyl)-6-((3′S,4′R)-3′-(hydroxymethyl)-[1,4′-bipiperidin]-1′-yl)-1H-pyrazolo[3,4-b]pyrazine-3-carbonitrile hydrochloride]
100 to 500 | Cc1nn([C@H](C)c2ccc(Cl)cc2Cl)c2nc(N3CC[C@H](N4CCC[C@H]4C)[C@H](C(=O)O)C3)cnc12 [Example 30, (3R,4S)-1-(1-((R)-1-(2,4-Dichlorophenyl)ethyl)-3-methyl-1H-pyrazolo[3,4-b]pyrazin-6-yl)-4-((R)-2-methylpyrrolidin-1-yl)piperidine-3-carboxylic acid hydrochloride]
< 100 | C[C@@H]1CN(c2cnc3c(C#N)nn([C@H](C)c4ccc(Cl)cc4Cl)c3n2)CC[C@@H]1N1CCC[C@H]1CO [Example 33, 1-((R)-1-(2,4-Dichlorophenyl)ethyl)-6-((3R,4S)-4-((S)-2-(hydroxymethyl)pyrrolidin-1-yl)-3-methylpiperidin-1-yl)-1H-pyrazolo[3,4-b]pyrazine-3-carbonitrile hydrochloride]
> 500 | Cc1nn([C@H](C)c2ccc(Cl)cc2Cl)c2nc(N3CC[C@H](N4CCC[C@H]4C(=O)O)[C@H](C)C3)cnc12 [Example 34, ((3R,4S)-1-(1-((R)-1-(2,4-Dichlorophenyl)ethyl)-3-methyl-1H-pyrazolo[3,4-b]pyrazin-6-yl)-3-methylpiperidin-4-yl)-L-proline 2,2,2-trifluoroacetate]
100 to 500 | Cc1nn([C@H](C)c2ccc(Cl)cc2Cl)c2nc(N3CC[C@H](N4CCC[C@@H](CC(=O)O)C4)[C@H](C)C3)cnc12 [Example 38, 2-((3S,3′R,4′S)-1′-(1-((R)-1-(2,4-Dichlorophenyl)ethyl)-3-methyl-1H-pyrazolo[3,4-b]pyrazin-6-yl)-3′-methyl-[1,4′-bipiperidin]-3-yl)acetic acid formate]
100 to 500 | C[C@@H]1CN(c2cnc3c(C#N)nn([C@H](C)c4ccc(Cl)cc4Cl)c3n2)CC[C@@H]1N1CCC[C@@H](CC(=O)O)C1 [Example 39, 2-((3S,3′R,4′S)-1′-(3-Cyano-1-((R)-1-(2,4-dichlorophenyl)ethyl)-1H-pyrazolo[3,4-b]pyrazin-6-yl)-3′-methyl-[1,4′-bipiperidin]-3-yl)acetic acid formate]
100 to 500 | Cc1nn([C@H](C)c2ccc(Cl)cc2Cl)c2nc(N3CC[C@H](N4CCC[C@H]4CCC(=O)O)[C@H](C)C3)cnc12 [Example 42, 3-((S)-1-((3R,4S)-1-(1-((R)-1-(2,4-dichlorophenyl)ethyl)-3-methyl-1H-pyrazolo[3,4-b]pyrazin-6-yl)-3-methylpiperidin-4-yl)pyrrolidin-2-yl)propanoic acid hydrochloride]
< 100 | Cc1nn([C@H](C)c2ccc(Cl)cc2Cl)c2nc(N3CC[C@H](N4CCC[C@H]4CCC(N)=O)[C@H](C)C3)cnc12 [Example 44, 3-((S)-1-((3R,4S)-1-(1-((R)-1-(2,4-Dichlorophenyl)ethyl)-3-methyl-1H-pyrazolo[3,4-b]pyrazin-6-yl)-3-methylpiperidin-4-yl)pyrrolidin-2-yl)propanamide hydrochloride]
< 100 | C[C@@H]1CN(c2cnc3c(C#N)nn([C@H](C)c4ccc(Cl)cc4Cl)c3n2)CC[C@@H]1N1CCC[C@H]1CCC(N)=O [Example 48, 3-((S)-1-((3R,4S)-1-(3-Cyano-1-((R)-1-(2,4-dichlorophenyl)ethyl)-1H-pyrazolo[3,4-b]pyrazin-6-yl)-3-methylpiperidin-4-yl)pyrrolidin-2-yl)propanamide 2,2,2-trifluoroacetate]
100 to 500 | Cc1nn([C@H](C)c2ccc(Cl)cc2Cl)c2nc(N3CCC(N4CCC[C@H]4CCC(=O)O)CC3)cnc12 [Example 51, 3-((S)-1-(1-(1-((R)-1-(2,4-Dichlorophenyl)ethyl)-3-methyl-1H-pyrazolo[3,4-b]pyrazin-6-yl)piperidin-4-yl)pyrrolidin-2-yl)propanoic acid 2,2,2-trifluoroacetate]
